According to patent US9212168B2 (priority 2011, dated 2015):

tested on: HCV genotype 1a replicon; assay: HCV genotype 1a replicon assay (NS3 protease activity readout); format: cell-based, hepatitis C virus; settings: HCV genotype 1a replicon
Outline: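 Genotype 1a subgenomic replicon cells (APC89, Huh7.5) were treated with compound dose-responses in G418-free medium, 0.5% DMSO final, for 48 or 72 hours at 37° C. Lysate NS3/4a protease activity measured with 15 μM FRET substrate, 20 min at 37° C (ex 340/em 509 nm); EC50 by 4-parameter fit.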

Row | SMILES | Genotype 1a
1 | COC(=O)N[C@H](C(=O)N1C[C@@H](C)C[C@H]1c1nc(-c2ccc(-c3ccc(C(=O)Nc4ccc(N5C[C@H](C)N(C(=O)C(C)(C)NC(C)=O)C[C@H]5C)nc4)cc3OC(F)(F)F)cc2)c[nH]1)C(C)C [Example 4-27] | C (C represents pEC50 between and 9 and about 10, (EC50 between 1 nM and 0.1 nM))
2 | COC(=O)N[C@H](C(=O)N1C[C@@H](C)C[C@H]1c1nc(-c2ccc(-c3ccc(C(=O)Nc4ccc(N5C[C@H](C)N(C(=O)[C@@H](C)NC(C)=O)C[C@H]5C)nc4)cc3OC(F)(F)F)cc2)c[nH]1)C(C)C [Example 4-28] | D (D represents pEC50>10 (EC50<0.1 nM))
3 | COC(=O)N[C@H](C(=O)N1C[C@@H](C)C[C@H]1c1nc(-c2ccc(-c3ccc(C(=O)Nc4ccc(N5CCN(C(=O)[C@H]6CC6(C)C)C[C@H]5C)nc4)cc3OC(F)(F)F)cc2)c(Cl)[nH]1)C(C)C [Example 4-29] | D (D represents pEC50>10 (EC50<0.1 nM))
4 | COC(=O)N[C@H](C(=O)N1C[C@@H](C)C[C@H]1c1nc(-c2ccc(-c3ccc(C(=O)Nc4ccc(N5CCN(C(=O)C6CC6(Cl)Cl)C[C@H]5C)nc4)cc3OC(F)(F)F)cc2)c(Cl)[nH]1)C(C)C (stereo partly shown) [Example 4-30] | C (C represents pEC50 between and 9 and about 10, (EC50 between 1 nM and 0.1 nM))
5 | COC(=O)N[C@H](C(=O)N1C[C@@H](C)C[C@H]1c1nc(-c2ccc(-c3ccc(C(=O)Nc4ccc(N5CCN(C(=O)C6CC6)C[C@H]5C)nc4)cc3OC(F)(F)F)cc2)c(Cl)[nH]1)C(C)C [Example 4-31] | C (C represents pEC50 between and 9 and about 10, (EC50 between 1 nM and 0.1 nM))
6 | COC(=O)N[C@H](C(=O)N1C[C@@H](C)C[C@H]1c1nc(-c2ccc(-c3ccc(C(=O)Nc4ccc(N5CCN(C(=O)C6CC6(Cl)Cl)C[C@H]5C)nc4)cc3OC(F)(F)F)cc2)c[nH]1)C(C)C (stereo partly shown) [Example 4-32] | C (C represents pEC50 between and 9 and about 10, (EC50 between 1 nM and 0.1 nM))
7 | COC(=O)N[C@H](C(=O)N1C[C@@H](C)C[C@H]1c1nc(-c2ccc(-c3ccc(C(=O)Nc4ccc(N5CCN(C(=O)N(C)C)C[C@H]5C)nc4)cc3OC(F)(F)F)cc2)c[nH]1)C(C)C [Example 4-33] | C (C represents pEC50 between and 9 and about 10, (EC50 between 1 nM and 0.1 nM))
8 | CNC(=O)N1CCN(c2ccc(NC(=O)c3ccc(-c4ccc(-c5c[nH]c([C@@H]6C[C@H](C)CN6C(=O)[C@@H](NC(=O)OC)C(C)C)n5)cc4)c(OC(F)(F)F)c3)cn2)[C@H](C)C1 [Example 4-34] | C (C represents pEC50 between and 9 and about 10, (EC50 between 1 nM and 0.1 nM))
9 | COC(=O)N[C@H](C(=O)N1C[C@@H](C)C[C@H]1c1nc(-c2ccc(-c3ccc(C(=O)Nc4ccc(N5CCN(C(=O)C6CC6)C[C@H]5C)nc4)cc3OC(F)(F)F)cc2)c[nH]1)C(C)C [Example 4-35] | C (C represents pEC50 between and 9 and about 10, (EC50 between 1 nM and 0.1 nM))
10 | COC(=O)N[C@H](C(=O)N1C[C@@H](C)C[C@H]1c1nc(-c2ccc(-c3ccc(C(=O)Nc4ccc(N5CCN(C(=O)C(C)(C)C)C[C@H]5C)nc4)cc3OC(F)(F)F)cc2)c[nH]1)C(C)C [Example 4-36] | C (C represents pEC50 between and 9 and about 10, (EC50 between 1 nM and 0.1 nM))
11 | COC(=O)N[C@H](C(=O)N1C[C@@H](C)C[C@H]1c1nc(-c2ccc(-c3ccc(C(=O)Nc4ccc(N5C[C@H](C)N(C(=O)[C@@]6(O)CC6(C)C)C[C@H]5C)nc4)cc3OC(F)(F)F)cc2)c[nH]1)C(C)C [Example 4-38] | C (C represents pEC50 between and 9 and about 10, (EC50 between 1 nM and 0.1 nM))
12 | COC(=O)N[C@H](C(=O)N1C[C@@H](C)C[C@H]1c1nc(-c2ccc(-c3ccc(C(=O)Nc4ccc(N5C[C@H](C)N(C(=O)C(C)(C)NC(=O)C6CC6)C[C@H]5C)nc4)cc3OC(F)(F)F)cc2)c[nH]1)C(C)C [Example 4-39] | C (C represents pEC50 between and 9 and about 10, (EC50 between 1 nM and 0.1 nM))
13 | COC(=O)N[C@H](C(=O)N1C[C@@H](C)C[C@H]1c1nc(-c2ccc(-c3ccc(C(=O)Nc4ccc(N5C[C@H](C)N(C(=O)[C@@H](C)NC(=O)C6CC6)C[C@H]5C)nc4)cc3OC(F)(F)F)cc2)c[nH]1)C(C)C [Example 4-40] | D (D represents pEC50>10 (EC50<0.1 nM))
14 | COC(=O)N[C@H](C(=O)N1C[C@@H](C)C[C@H]1c1nc(-c2ccc(-c3cc(F)c(C(=O)Nc4ccc(N5CCN(C(=O)C(C)(C)C)C[C@H]5C)nc4)cc3OC(F)(F)F)cc2)c[nH]1)C(C)C [Example 4-41] | C (C represents pEC50 between and 9 and about 10, (EC50 between 1 nM and 0.1 nM))
15 | COC(=O)N[C@H](C(=O)N1C[C@@H](C)C[C@H]1c1nc(-c2ccc(-c3cc(F)c(C(=O)Nc4ccc(N5CCN(C(=O)[C@H]6CC6(C)C)C[C@H]5C)nc4)cc3OC(F)(F)F)cc2)c[nH]1)C(C)C [Example 4-43] | C (C represents pEC50 between and 9 and about 10, (EC50 between 1 nM and 0.1 nM))
16 | COC(=O)N[C@H](C(=O)N1C[C@@H](C)C[C@H]1c1nc(-c2ccc(-c3cc(F)c(C(=O)Nc4ccc(N5CCN(C(=O)[C@H]6CC6(C)C)C[C@H]5C)nc4)cc3OC(F)(F)F)cc2)c(Cl)[nH]1)C(C)C [Example 4-44] | D (D represents pEC50>10 (EC50<0.1 nM))
17 | COC(=O)N[C@H](C(=O)N1C[C@@H](C)C[C@H]1c1nc(-c2ccc(-c3cc(F)c(C(=O)Nc4ccc(N5CCN(C(=O)C(C)(C)C)C[C@H]5C)nc4)cc3OC(F)(F)F)cc2)c(Cl)[nH]1)C(C)C [Example 4-45] | C (C represents pEC50 between and 9 and about 10, (EC50 between 1 nM and 0.1 nM))
18 | COC(=O)N[C@H](C(=O)N1C[C@@H](C)C[C@H]1c1nc(-c2ccc(-c3cc(Cl)c(C(=O)Nc4ccc(N5CCN(C(=O)C(C)(C)C)C[C@H]5C)nc4)cc3OC(F)(F)F)cc2)c(Cl)[nH]1)C(C)C [Example 4-47] | C (C represents pEC50 between and 9 and about 10, (EC50 between 1 nM and 0.1 nM))

same assay, conditions: Hepatitis C virus, read-out: Genotype 1a, HCV genotype 1a replicon

Row | SMILES | EC50
19 | COC(=O)N[C@H](C(=O)N1CC2(C[C@H]1c1nc(-c3ccc(-c4ccc(NC(=O)c5ccc(N6CCN(C(=O)[C@]7(C)CCCN7C(=O)[C@@H](NC(=O)OC)C(C)C)C[C@H]6C)nc5)cc4OC(F)(F)F)cc3)c[nH]1)OCCO2)C(C)C [Example 5-1] | < 0.1 nM
20 | COCC(=O)N1CCC[C@@]1(C)C(=O)N1CCN(c2ccc(C(=O)Nc3ccc(-c4ccc(-c5c[nH]c([C@@H]6CC7(CN6C(=O)[C@@H](NC(=O)OC)C(C)C)OCCO7)n5)cc4)c(OC(F)(F)F)c3)cn2)[C@H](C)C1 [Example 5-2] | < 0.1 nM
21 | COC(=O)N[C@H](C(=O)N1C[C@H](N2Cc3ccccc3C2)C[C@H]1c1nc(-c2ccc(-c3cc(Cl)c(NC(=O)c4ccc(N5CCN(C(=O)C(C)(C)C)C[C@H]5C)nc4)cc3OC(F)(F)F)cc2)c[nH]1)C(C)C [Example 5-10] | 10 to 1000 nM
22 | COC(=O)N[C@H](C(=O)N1CC2(C[C@H]1c1nc(-c3ccc(-c4cc(Cl)c(NC(=O)c5ccc(N6CCN(C(=O)C(C)(C)C)C[C@H]6C)nc5)cc4OC(F)(F)F)cc3)c[nH]1)OCCO2)C(C)C [Example 5-11] | < 0.1 nM
23 | COC(=O)N[C@H](C(=O)N1C[C@@H](C)C[C@H]1c1nc(-c2ccc(-c3cc(Cl)c(NC(=O)c4ccc(N5CCN(C(=O)C(C)(C)C)C[C@H]5C)nc4)cc3OC(F)(F)F)cc2)c(CO)[nH]1)C(C)C [Example 5-12] | < 0.1 nM
24 | COC(=O)N[C@H](C(=O)N1C[C@@H](C)C[C@H]1c1nc(-c2ccc(-c3cc(Cl)c(NC(=O)c4ccc(N5CCN(C(=O)C(C)(C)CO)C[C@H]5C)nc4)cc3OC(F)(F)F)cc2)c(CO)[nH]1)C(C)C [Example 5-13] | < 0.1 nM
25 | COC(=O)N[C@H](C(=O)N1C[C@@H](C)C[C@H]1c1nc(-c2ccc(-c3cc(Cl)c(NC(=O)c4ccc(N5CCN(C(=O)C(C)(C)C)C[C@H]5C)nc4)c(Cl)c3OC(F)(F)F)cc2)c[nH]1)C(C)C [Example 5-14] | 0.1 to 1 nM
26 | COC[C@H]1C[C@@H](c2nc(-c3ccc(-c4cc(Cl)c(NC(=O)c5ccc(N6CCN(C(=O)C(C)(C)C)C[C@H]6C)nc5)cc4OC(F)(F)F)cc3)c[nH]2)N(C(=O)[C@@H](NC(=O)OC)C2CCOCC2)C1 [Example 5-15] | < 0.1 nM
27 | COC(=O)N[C@H](C(=O)N1C[C@@H](OC)C[C@H]1c1nc(-c2ccc(-c3cc(F)c(NC(=O)c4ccc(N5CCN(C(=O)C(C)(C)C)[C@@H](CO)C5)nc4)cc3OC(F)(F)F)cc2)c[nH]1)C1CCOCC1 [Example 5-16] | < 0.1 nM
28 | COC(=O)N[C@H](C(=O)N1C[C@@H](OC)C[C@H]1c1nc(-c2ccc(-c3cc(Cl)c(NC(=O)c4ccc(N5CCN(C(=O)C(C)(C)CO)C[C@H]5C)nc4)cc3OC(F)(F)F)cc2)c(CO)[nH]1)C(C)C [Example 5-17] | < 0.1 nM
29 | COC(=O)N[C@H](C(=O)N1C[C@H](OC)C[C@H]1c1nc(-c2ccc(-c3cc(Cl)c(NC(=O)c4ccc(N5CCN(C(=O)C(C)(C)C)C[C@H]5C)nc4)cc3OC(F)(F)F)cc2)c[nH]1)C(C)C [Example 5-19] | < 0.1 nM
30 | COC(=O)N[C@H](C(=O)N1C[C@H](OC)C[C@H]1c1nc(-c2ccc(-c3cc(Cl)c(NC(=O)c4ccc(N5CCN(C(=O)C(C)(C)C)C[C@H]5C)nc4)cc3OC(F)(F)F)cc2)c[nH]1)C1CCOCC1 [Example 5-20] | < 0.1 nM
31 | COC(=O)N[C@H](C(=O)N1C[C@@H](N(C)C)C[C@H]1c1nc(-c2ccc(-c3ccc(C(=O)Nc4ccc(N5CCN(C(=O)[C@]6(C)CCCN6C(=O)[C@@H](NC(=O)OC)C(C)C)C[C@H]5C)nc4)cc3)cc2)c[nH]1)C(C)C [Example 6-3] | 0.1 to 1 nM
32 | COC(=O)N[C@H](C(=O)N1C[C@@H](N)C[C@H]1c1nc(-c2ccc(-c3ccc(C(=O)Nc4ccc(N5CCN(C(=O)C6CC6(C)C)C[C@H]5C)nc4)cc3)cc2)c[nH]1)C(C)C (stereo partly shown) [Example 6-4] | 10 to 1000 nM
33 | COC(=O)N[C@H](C(=O)N1CC(C)(C)C[C@H]1c1nc(-c2ccc(-c3ccc(C(=O)Nc4ccc(N5CCN(C(=O)[C@]6(C)CCCN6C(=O)[C@@H](NC(=O)OC)C(C)C)C[C@H]5C)nc4)cc3OC(F)(F)F)cc2)c[nH]1)C(C)C [Example 6-6] | 0.1 to 1 nM
34 | COCC(=O)N1CCC[C@@]1(C)C(=O)N1CCN(c2ccc(NC(=O)c3ccc(-c4ccc(-c5c[nH]c([C@@H]6CC(C)(C)CN6C(=O)[C@@H](NC(=O)OC)C(C)C)n5)cc4)c(OC(F)(F)F)c3)cn2)[C@H](C)C1 [Example 6-7] | < 0.1 nM
